Read-outs that look alike come from different tables or passages of the source.
Target: PD-1/PD-L1 complex (Homo sapiens, UniProt Q9NZQ7)
Assay: HTRF assay of PD-1/PD-L1 complex dissociation (CisBio);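 further: human PD-L1 at 5 nM with human PD-1 at 50 nM, TR-FRET signal read after 2 h at room temperature, background removed via negative control and scaled to positive control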
Conditions: for remaining activity at 5 µM / remaining activity at 50 µM / remaining activity at 0.005 µM: 2 h; for IC50: HTRF; for % of undissociated complex: at 50 μM, Table S1; for HTRF % of the undissociated complex: determined at 50 μM inhibitor (footnote a), Table 2; for % of the undissociated complex: 5 μM
[1] = read-out: % of the undissociated complex in HTRF
[2] = read-out: % of undissociated complex at 5 μM
[3] = read-out: HTRF % of the undissociated complex at 5 μM
[4] = read-out: % of undissociated complex at 5 nM
[5] = read-out: HTRF % of the undissociated complex at 5 nM

Sequence of PD-1/PD-L1 complex (Q9NZQ7 19-238 limits assumed, one chain of several): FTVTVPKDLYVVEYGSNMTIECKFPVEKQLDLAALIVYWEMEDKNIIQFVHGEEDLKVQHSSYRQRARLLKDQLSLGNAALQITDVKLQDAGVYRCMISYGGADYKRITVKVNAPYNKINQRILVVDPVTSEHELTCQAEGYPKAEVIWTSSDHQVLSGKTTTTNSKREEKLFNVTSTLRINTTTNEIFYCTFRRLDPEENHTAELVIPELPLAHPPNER

Structure (SMILES) | remaining activity at 5 µM [1] [%] | remaining activity at 5 µM [2] [%] | remaining activity at 5 µM [3] [%] | also measured
Cc1c(-c2cccc(CO)c2)cccc1-c1ccc2c(c1)OCCO2 [4b, (3′-(Benzo-1,4-dioxan-6-yl)-2′-methyl-[1,1′-biphenyl]-3-yl)methanol] | 88 | 88 | 88 | –
Cc1c(-c2ccc3c(c2)OCCO3)cccc1-c1ccccc1CO [4c, (3′-(Benzo-1,4-dioxan-6-yl)-2′-methyl-[1,1′-biphenyl]-2-yl)methanol] | 98 | 98 | 98 | –
Nc1c(-c2ccc(CO)cc2)cccc1-c1ccc2c(c1)OCCO2 [4d, (2′-Amino-3′-(benzo-1,4-dioxan-6-yl)-[1,1′-biphenyl]-4-yl)methanol] | 73 | 73 | 73 | –
OCc1ccc(-c2cccc(-c3ccc4c(c3)OCCO4)c2Cl)cc1 [4e, (3′-(Benzo-1,4-dioxan-6-yl)-2′-chloro-[1,1′-biphenyl]-4-yl)methanol] | 1 | 1 | 1 | IC50: ~500 nM; IC50 (Table 1): 510 ± 10 nM
OCc1ccc(-c2cccc(-c3ccc4c(c3)OCCO4)c2Br)cc1 [4f, (3′-(Benzo-1,4-dioxan-6-yl)-2′-bromo-[1,1′-biphenyl]-4-yl)methanol] | 15 | 15 | 15 | IC50 (Table 1): 950 ± 20 nM
OCc1ccc(-c2cccc(-c3ccc4c(c3)OCCO4)c2I)cc1 [4g, (3′-(Benzo-1,4-dioxan-6-yl)-2′-iodo-[1,1′-biphenyl]-4-yl)methanol] | 56 | 56 | 56 | –
N#Cc1c(-c2ccc(CO)cc2)cccc1-c1ccc2c(c1)OCCO2 [4h] | 21 | 21 | 21 | IC50 (Table 1): 1170 ± 120 nM
Cc1c(-c2ccc(COc3cccc(C(=O)O)c3)cc2)cccc1-c1ccc2c(c1)OCCO2 [5b, 3-((3′-(Benzo-1,4-dioxan-6-yl)-2′-methyl-[1,1′-biphenyl]-4-yl)methoxy)benzoic Acid] | – | – | – | remaining activity at 50 µM [1]: 71%; % of undissociated complex: 71%; HTRF % of the undissociated complex: 71^[a] %
Cc1c(-c2ccc(COc3ccc(-c4cccnc4)c(C=O)c3)cc2)cccc1-c1ccc2c(c1)OCCO2 [5d, 5-((3′-(Benzo-1,4-dioxan-6-yl)-2′-methyl-[1,1′-biphenyl]-4-yl)methoxy)-2-(pyridin-3-yl)benzaldehyde] | – | – | – | remaining activity at 50 µM [1]: 65%; % of undissociated complex: 65%; HTRF % of the undissociated complex: 65^[a] %
Cc1c(-c2cccc(COc3ccc(-c4cccnc4)c(C=O)c3)c2)cccc1-c1ccc2c(c1)OCCO2 [5l, 5-((3′-(Benzo-1,4-dioxan-6-yl)-2′-methyl-[1,1′-biphenyl]-3-yl)methoxy)-2-(yridine-3-yl)benzaldehyde] | – | – | – | remaining activity at 50 µM [1]: 95%; % of undissociated complex: 95%; HTRF % of the undissociated complex: 95^[a] %
Cc1c(-c2ccc3c(c2)OCCO3)cccc1-c1ccccc1COc1cccc(C(=O)O)c1 [5p, 3-((3′-(Benzo-1,4-dioxan-6-yl)-2′-methyl-[1,1′-biphenyl]-2-yl)methoxy)benzoic Acid] | – | – | – | remaining activity at 50 µM [1]: 87%; % of undissociated complex: 87%; HTRF % of the undissociated complex: 87^[a] %
COc1cc(-c2cccc(-c3ccc4c(c3)OCCO4)c2C)ccc1CN1CCNCC1 [6d, 1-((3′-(Benzo-1,4-dioxan-6-yl)-3-methoxy-2′-methyl-[1,1′-biphenyl]-4-yl)methyl)piperazine] | – | – | – | remaining activity at 0.005 µM [4]: 63%; remaining activity at 0.005 µM [5]: 63%
Cc1c(-c2ccc(CN3CCNCC3)c(OCc3cccc(C#N)c3)c2)cccc1-c1ccc2c(c1)OCCO2 [6e, 3-(((3′-(Benzo-1,4-dioxan-6-yl)-2′-methyl-4-(piperazin-1-ylmethyl)-[1,1′-biphenyl]-3-yl)oxy)methyl)benzonitrile] | – | – | – | remaining activity at 0.005 µM [4]: 88%; remaining activity at 0.005 µM [5]: 88%
CCOc1cc(-c2cccc(-c3ccc4c(c3)OCCO4)c2Cl)ccc1CNCCNC(C)=O [7b, N-(2-(((3′-(Benzo-1,4-dioxan-6-yl)-2′-chloro-3-ethoxy-[1,1′-biphenyl]-4-yl)methyl)amino)ethyl)acetamide] | – | – | – | remaining activity at 0.005 µM [4]: 5%; remaining activity at 0.005 µM [5]: 5%
CC(=O)NCCNCc1ccc(-c2cccc(-c3ccc4c(c3)OCCO4)c2Cl)cc1OC(C)C [7c, N-(2-(((3′-(Benzo-1,4-dioxan-6-yl)-2′-chloro-3-isopropoxy-[1,1′-biphenyl]-4-yl)methyl)amino)ethyl)acetamide] | – | – | – | remaining activity at 0.005 µM [4]: 5%; remaining activity at 0.005 µM [5]: 5%

Continued, in another order:

remaining activity at 5 µM [1] [%] | remaining activity at 5 µM [2] [%] | remaining activity at 5 µM [3] [%] | Structure (SMILES) | also measured
90 | 90 | 90 | Cc1c(-c2ccc(COc3cc(C(=O)O)on3)cc2)cccc1-c1ccc2c(c1)OCCO2 [5f, 3-((3′-(Benzo-1,4-dioxan-6-yl)-2′-methyl-[1,1′-biphenyl]-4-yl)methoxy)isoxazole-5-carboxylic Acid] | –
100 | 100 | 100 | Cc1c(-c2ccc(Cn3cc(C(=O)O)nn3)cc2)cccc1-c1ccc2c(c1)OCCO2 [5h, 1-((3′-(Benzo-1,4-dioxan-6-yl)-2′-methyl-[1,1′-biphenyl]-4-yl)methyl)-1H-1,2,3-triazole-4-carboxylic Acid] | –
90 | 90 | 90 | Cc1c(-c2cccc(COc3cccc(C(=O)O)c3)c2)cccc1-c1ccc2c(c1)OCCO2 [5j, 3-((3′-(Benzo-1,4-dioxan-6-yl)-2′-methyl-[1,1′-biphenyl]-3-yl)methoxy)benzoic Acid] | –
77 | 77 | 77 | Cc1c(-c2cccc(COc3cc(C(=O)O)on3)c2)cccc1-c1ccc2c(c1)OCCO2 [5n, 3-((3′-(Benzo-1,4-dioxan-6-yl)-2′-methyl-[1,1′-biphenyl]-3-yl)methoxy)isoxazole-5-carboxylic Acid] | –
100 | 100 | 100 | Cc1c(-c2ccc3c(c2)OCCO3)cccc1-c1ccccc1COc1cc(C(=O)O)on1 [5r, 3-((3′-(Benzo-1,4-dioxan-6-yl)-2′-methyl-[1,1′-biphenyl]-2-yl)methoxy)isoxazole-5-carboxylic Acid] | –
55 | 55 | 55 | Cc1c(-c2ccc(CN3CCOCC3)cc2)cccc1-c1ccc2c(c1)OCCO2 [6a, 4-((3′-(Benzo-1,4-dioxan-6-yl)-2′-methyl-[1,1′-biphenyl]-4-yl)methyl)morpholine] | –
5 | 5 | 5 | Cc1c(-c2ccc(CN3CCNCC3)cc2)cccc1-c1ccc2c(c1)OCCO2 [6b, 4-((3′-(Benzo-1,4-dioxan-6-yl)-2′-methyl-[1,1′-biphenyl]-4-yl)methyl)piperazine] | % of the undissociated complex: 5%
56 | 56 | 56 | Cc1c(-c2cccc(CN3CCNCC3)c2)cccc1-c1ccc2c(c1)OCCO2 [6c, 1-((3′-(Benzo-1,4-dioxan-6-yl)-2′-methyl-[1,1′-biphenyl]-3-yl)methyl)piperazine] | % of the undissociated complex: about 56%

From PMC8365601, “Terphenyl-Based Small-Molecule Inhibitors of Programmed Cell Death-1/Programmed Death-Ligand 1 Protein–Protein Interaction” (Journal of Medicinal Chemistry, 2021)
